Measurements reported in ChEMBL document CHEMBL3886227, “Multiheteroaryl compounds as inhibitors of H-PGDS and their use for treating prostaglandin D2 mediated diseases” (2015).

Molecular target: Hematopoietic prostaglandin D synthase (Homo sapiens, UniProt O60760)
Experiment: Fluorescence Polarization Binding Assay (FPBA): This assay essentially is available from Cayman Chemical Company as Catalog item #600007. The test data reported for the aforementioned Examples (H-PGDS FPBA IC50) were generated using a 96-well, instead of the 384-well, format.Detection analyte and H-PGDS-MBP fusion enzyme were incubated in the presence of reduced glutathione (5 mM) for 60-90 minutes at room temperature and FP was measured using a TECAN SAFIRE 2 plate reader equipped with absorbance, fluorescence, fluorescence polarization and FRET capabilities. Assays were performed in 96-well microtiter plates in 100 µL of total sample volume. Excitation and emission wavelengths appropriate for the employed detection analyte were used.

Hematopoietic prostaglandin D synthase, sequence (O60760 whole entry, the tested form may be a part): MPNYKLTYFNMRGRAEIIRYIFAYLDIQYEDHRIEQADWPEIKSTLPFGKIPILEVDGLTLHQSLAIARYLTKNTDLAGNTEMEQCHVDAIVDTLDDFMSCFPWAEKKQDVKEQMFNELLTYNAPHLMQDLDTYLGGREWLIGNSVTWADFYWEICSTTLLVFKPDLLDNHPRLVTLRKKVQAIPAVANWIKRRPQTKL

`COC(=O)c1cc(-c2cnc(Oc3ccccc3)nc2)[nH]n1` was tested, and the IC50 was 2000 nM.
